This is an account of results in US20260223850A1, “SUBSTITUTED PYRROLIDONE COMPOUND, PREPARATION METHOD THEREFOR, COMPOSITION AND APPLICATION THEREOF” (QINGDAO KINGAGROOT CHEMICAL COMPOUND CO., LTD., priority 2023, published 2026).

Series [1] deals with Apple ring rot. In words: Fungicidal activity assay, petri dish method. The class given is cell-based. The conditions noted are these: 25° C., after 4 days; for Apple ring rot/% (mycelium growth inhibition rate): 400 ppm. The procedure: (§1) Petri dish method: The drug agent was dissolved with acetone, diluted with sterile water, and set to different levels of mass concentrations according to its activity. Under aseptic operation conditions, the pre-melted sterilized medium was quantitatively added into sterilized flasks according to the test treatment. The drug solutions were quantitatively aspirated in order from low to high concentrations, added into the above-mentioned flasks, and shaken well, respectively. Next, equal amounts of the solution were poured into 3 petri dishes with a diameter of 6 cm to prepare drug-containing plates with corresponding concentrations. In the test, a treatment without drugs was set up as the blank control and each treatment was repeated 3 times. A fungus cake was cut out from the edge of the colony of the cultured pathogens using a sterile hole puncher with a diameter of 3 mm under sterile conditions. The fungus cake was inoculated into the center of a drug-containing plate using an inoculator, with the mycelia facing up, covered with a plate cover, and cultured in an incubator at 25° C. The growth of pathogen mycelia was investigated according to the fungal growth in the blank control petri dishes after 4 days. The diameters of the colonies were measured with a caliper in millimeters (mm). Each colony was vertically measured for diameters once each by the cross method and then averaged. Based on the investigation results, the mycelium growth inhibition rate of each treatment concentration on the test target fungi was calculated in accordance with Equation (1) and (2). The unit was percentage (%).
(§2) [formula] • wherein: D—Increase of colony diameter; D1—Diameter of colony; D2—Diameter of fungus cake.
(§3) [formula] • wherein: I—Mycelium growth inhibition rate; D0—Increase of colony diameter of blank control; Dt—Increase of colony diameter of drug treatment.

In series [2] the test system is Rice sheath blight. In words: Fungicidal activity assay, petri dish method. The class given is cell-based. The conditions noted are these: 25° C., after 4 days; for Rice sheath blight/% (mycelium growth inhibition rate): 400 ppm. The procedure:
as §1, §2, §3

Series [3] relates to Echinochloa crusgalli. As to the kind of experiment: Seedling stage sealing experiment for water-seeding. The class given is in vivo. The conditions noted are these: 120 g a.i./ha, seedling stage sealing, 15 days, fresh weight control rate.
The test system of series [4] is Echinochloa phyllopogon. Described as above. The class given is in vivo. To be noted: 120 g a.i./ha, seedling stage sealing, 15 days, fresh weight control rate. An outline of the steps: (§4)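 Scores (0 = no effect to 9 = dead) reflect fresh-weight control rate 15 days after spray application in greenhouse at 15, 30, 60 or 120 g a.i./ha, mean of three replicates. Seeds were broadcast and soil-covered in pots held moist in water-filled cultivation boxes.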

For series [5], the system named is weeds. As to the kind of experiment: Activity assay of compositions, soil sealing treatment (S). Type of series: in vivo. The conditions noted are these: treatment S, A 15 g a.i./ha. From the text:
(§5) The required active ingredient B was purchased from a reagent company or a technical material manufacturer or synthesized by a conventional method. The technical materials were all dissolved with acetone solvents and diluted with aqueous solution of 0.1% Tween® 80 emulsifier, which should be used immediately after dilution.
The test soil was quantitatively filled to ¾ of a pot, and then watered from the bottom of the pot to completely wet the soil to saturation. The seeds of the test weeds were accelerated to Just germinate, and then evenly and quantitatively broadcasted on the soil surface, covered with 0.5-1 cm soil according to the sizes of the seeds, and ready for use 72 hours after broadcasting.
Each treatment was repeated 4 times. Four pots were treated each time with 20 weed seeds per pot.
The seeds were planted in a 20 cm*30 cm square box. Water was added to 2-3 cm deep after sowing, then injected with the drug agent using a syringe, stirred evenly, and left to stand for 2 days to dry naturally. The soil was kept moist afterwards.
(§6) A method for investigating absolute numbers was employed. The whole seedlings of the survival weeds were cut along the soil surface with a blade, and the fresh weight of the weeds was weighed by an analytical balance. For dead weeds, the fresh weight thereof was considered zero.
(§7) The investigation was performed 21 days after the treatment for once in total.
(§8) The theoretical fresh weight inhibition rate of a mixed combination of each treatment was calculated by the Gowing method (E0═X+Y−X*Y/100), then compared with the measured inhibition rate (E) to evaluate the type of the combined action of the combination of the two on weeds. The combined action was a synergistic effect when E−E0 >10%; an antagonistic effect when E−E0<−10%; an additional effect when −10%≤E−E0≤10%. An optimal ratio was determined according to factors such as actual control effects, characteristics of herbicides, balance of the formulation, etc.

The test system of series [6] is Leptochloa chinensis. In words: Seedling stage sealing experiment for water-seeding. To be noted: 120 g a.i./ha, 15 days, fresh weight control rate. Type of series: in vivo. An outline of the steps:
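Seeds sown in soil-filled bowls kept moist in water-filled boxes; compound in acetone diluted with water and spray-applied at 120, 60, 30 and 15 g a.i./ha, triplicate. After 15 days in greenhouse, fresh-weight growth control scored on a 0–9 scale (9 = dead, 0 = no effect), averaged.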

The subject of series [7] is weeds. In words: Activity assay of compositions, post-emergence spray treatment of stems and leaves (F). Type of series: in vivo. To be noted: treatment F, A 30 g a.i./ha, 21 days after treatment. The procedure:
as §5
Weeds were cultivated by the pot culture method. […] Weed seeds with plump and uniform grains were selected, soaked in lukewarm water at 25° C. for 6 hours, and accelerated to germinate in a 28° C. biochemical incubator (in darkness). The weed seeds that had just germinated were evenly placed on the surface of the soil and then covered with 0.5-1 cm soil according to the sizes of seeds.
The weeds were cultured in a controllable sunlight greenhouse at 20-30° C., in natural light and with relative humidity of 57%-72%.
Each treatment was repeated 4 times. Three pots with 20 weed seeds sowed per pot were treated each time.
The drug was applied once in total in the experiment. When at 1.5-2 leaf stage, the weeds were thinned out to maintain 10 strains per pot. Thirty strains were kept in each treatment and then continued to be cultured until the 3-4 leaf stage for further treatment.
The well-cultured test materials were evenly placed on a 0.5 m^2 platform and foliage-sprayed by the 3WP-2000-type walking spray tower at a dosage of […] and a spray pressure of 0.3 MPa. After all the drug solution was sprayed, the air valve was closed. And 30 seconds later, the door of the spray tower was opened, and the nutritional bowl was taken out. Next, the air valve was opened, and the spray tube was cleaned by spraying 50 mL of water. The test materials were transferred to and routinely cultured in a greenhouse after the treatment.
as §6, §7
as §8, with “etc. In the formula, X represents the fresh weight inhibition rate of the active ingredient A in a dosage of P; Y represents the fresh weight inhibition rate of the active ingredient B in a dosage of Q. The statistical results are shown in Table 6.” for “etc.”

Series [8] relates to Tomato gray mold. As to the kind of experiment: Fungicidal activity assay, petri dish method. The conditions noted are these: 400 ppm, 25° C., after 4 days. The class given is cell-based. The procedure: as §1, §2, §3
Series [9] deals with Huaidao (rice cultivar). As to the kind of experiment: Seedling stage sealing experiment for water-seeding (crop safety). The class given is in vivo. To be noted: 120 g a.i./ha, seedling stage sealing, 15 days, fresh weight control rate. An outline of the steps: as §4

Turning to `Cc1cc(C)cc([C@H]2CN(C)C(=O)[C@@H]2C(=O)Nc2cnn(C)c2Cl)c1` [117′], the inhibition at 400 ppm worked out at 55% in [1] (96 h, read-out: Apple ring rot/% (mycelium growth inhibition rate)) and 66% in [2] (96 h, read-out: Rice sheath blight/% (mycelium growth inhibition rate)). For the same compound, the “Echinochloa crusgalli activity level (growth control rate)” value (from here on “Echinochloa crusgalli activity level”) in [3] stood at 9. For the same compound, the “Echinochloa phyllopogon activity level (growth control rate)” value in series [4] was 7 (Level 7: growth control rate greater than or equal to 80% and less than 90%). The “Control effect of A applied alone in a corresponding dose (%)” value came out at 29.6% in series [5] (Alisma plantago-aquatica, 21 days after treatment); 45.7% in series [5] (Paspalum distichum, 21 days after treatment); 37.6% in series [5] (Rotala indica, fresh weight inhibition 21 days after treatment); 24.8% in series [7] (Alisma plantago-aquatica); 42.6% in series [7] (Paspalum distichum). In addition, the “Leptochloa chinensis activity level (growth control rate)” value in [6] is recorded as 9.

Regarding `CN1C[C@H](c2ccc(C3CC3)cc2)[C@@H](C(=O)Nc2cnn(C)c2Cl)C1=O` [259′], the “Tomato gray mold/% (mycelium growth inhibition rate)” value in [8] turned out to be 80%. Further, the “Apple ring rot/% (mycelium growth inhibition rate)” value in series [1] was determined as 51%. Also, the “Rice sheath blight/% (mycelium growth inhibition rate)” value in series [2] was determined as 59%. Besides, the “Echinochloa crusgalli activity level” value in series [3] is 5 (Level 5: growth control rate greater than or equal to 50% and less than 70%). Also, in series [9], the “Huaidao (rice cultivar) plant damage level” value was 0.

As to `CN1C[C@H](c2ccc3c(c2)OC(F)(F)O3)[C@@H](C(=O)Nc2cnn(C)c2Cl)C1=O` [357′], the “Tomato gray mold/% (mycelium growth inhibition rate)” value in [8] is 80%. The “Apple ring rot/% (mycelium growth inhibition rate)” value in [1] turned out to be 65%. In series [2], the “Rice sheath blight/% (mycelium growth inhibition rate)” value amounted to 50%.

For `Cc1cc(C)cc([C@H]2CN(C)C(=O)[C@@H]2C(=O)Nc2cnn(C)c2Br)c1` [425′], the “Tomato gray mold/% (mycelium growth inhibition rate)” value in [8] is 68%. Moreover, in series [1], the “Apple ring rot/% (mycelium growth inhibition rate)” value is 55%. Moreover, the “Rice sheath blight/% (mycelium growth inhibition rate)” value in [2] was 56%. Moreover, the “Echinochloa crusgalli activity level” value in series [3] is listed as 9. Besides, the “Echinochloa phyllopogon activity level (growth control rate)” value in series [4] turned out to be 9. For the same compound, the “Huaidao (rice cultivar) plant damage level” value in series [9] is on record as 0.
